What was measured:
Format in all cases: in vivo
corn (Zea mays) = assay: Test A pre-/postemergence greenhouse herbicide test, visual injury rating 0-100; settings: 1000 g ai/ha
In short: (§1)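 Greenhouse plants received compound either as directed soil spray at planting or as postemergence spray at the one- to two-leaf stage (2–10 cm). Evaluated after about 10 days by visual comparison with untreated controls.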

[1] = system: large (Lg) crabgrass (Digitaria sanguinalis); assay: as above; settings: 1000 g ai/ha
In short: as §1

[2] = system: morningglory (Ipomoea spp.); assay: as above; settings: 1000 g ai/ha
In short: as §1

[3] = system: wheat (Triticum aestivum); assay: as above; settings: 1000 g ai/ha
In short: as §1

[4] = system: velvetleaf (Abutilon theophrasti); assay: as above; settings: 1000 g ai/ha
In short: as §1

[5] = system: pigweed (Amaranthus retroflexus); assay: as above; settings: 1000 g ai/ha
In short: as §1

[6] = system: giant foxtail (Setaria faberii); assay: as above; settings: 1000 g ai/ha
In short: as §1

[7] = system: barnyardgrass (Echinochloa crus-galli); assay: as above; settings: 1000 g ai/ha
In short: as §1

[8] = system: morningglory (Ipomoea coccinea); assay: Test C pre-/postemergence greenhouse test, plant response rating 0-100; settings: Postemergence
In short: (§2)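 Seeds were sown in a loam soil–sand blend and sprayed preemergence with test chemicals in a non-phytotoxic solvent mixture containing surfactant; postemergence plants in peat/vermiculite medium were treated at 2–18 cm (1- to 4-leaf stage). After 13 to 15 days in the greenhouse, injury was rated visually against untreated controls.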

[9] = system: Italian ryegrass (Lolium multiflorum); assay: as above; settings: Postemergence
In short: as §2

[10] = system: ragweed (common ragweed, Ambrosia elatior); assay: as above; settings: Postemergence;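 further: 0 is no effect and 100 is complete control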
In short: as §2

[11] = system: velvetleaf (Abutilon theophrasti); assay: as above; settings: Postemergence
In short: as §2

[12] = system: galium (catchweed bedstraw, Galium aparine); assay: as above; settings: Postemergence
In short: as §2

## ON=C(c1ccccc1)c1c[nH]nc1-c1cc(Cl)cc(Cl)c1 [Compound 50]
Corn (Zea mays); Postemergence
  Plant response rating (0 to 100 scale), Corn: 0
Corn (Zea mays); Preemergence
  Plant response rating (0 to 100 scale), Corn: 0
[1]; Postemergence
  Plant response rating (0 to 100 scale), Crabgrass, Large: 0
[1]; Preemergence
  Plant response rating (0 to 100 scale), Crabgrass, Large: 0
[2]; Postemergence
  Plant response rating (0 to 100 scale), Morningglory: 0
[2]; Preemergence
  Plant response rating (0 to 100 scale), Morningglory: 0
[3]; Postemergence
  Plant response rating (0 to 100 scale), Wheat: 0
[3]; Preemergence
  Plant response rating (0 to 100 scale), Wheat: 0
[4]; Postemergence
  Plant response rating (0 to 100 scale), Velvetleaf: 100
[4]; Preemergence
  Plant response rating (0 to 100 scale), Velvetleaf: 90
[5]; Postemergence
  Plant response rating (0 to 100 scale), Pigweed: 90
[5]; Preemergence
  Plant response rating (0 to 100 scale), Pigweed: 100
[6]; Postemergence
  Plant response rating (0 to 100 scale), Foxtail, Giant: 10
[6]; Preemergence
  Plant response rating (0 to 100 scale), Foxtail, Giant: 0
[7]; Postemergence
  Plant response rating (0 to 100 scale), Barnyardgrass: 0
[7]; Preemergence
  Plant response rating (0 to 100 scale), Barnyardgrass: 0
[8]; 62 g ai/ha
  Plant response rating (0 to 100), Morningglory: 0
[8]; 125 g ai/ha
  Plant response rating (0 to 100), Morningglory: 0
[8]; 250 g ai/ha, scale 0 to 100
  Plant response rating, Morningglory: 0
[9]; 62 g ai/ha
  Plant response rating (0 to 100), Ryegrass, Italian: 0
[9]; 125 g ai/ha
  Plant response rating (0 to 100), Ryegrass, Italian: 0
[9]; 250 g ai/ha, scale 0 to 100
  Plant response rating, Ryegrass, Italian: 0
[10]; 62 g ai/ha
  Plant response rating (0 to 100), Ragweed: 0
[10]; 125 g ai/ha
  Plant response rating (0 to 100), Ragweed: 0
[10]; 250 g ai/ha, scale 0 to 100
  Plant response rating, Ragweed: 45
[11]; 62 g ai/ha
  Plant response rating (0 to 100), Velvetleaf: 75
[11]; 125 g ai/ha
  Plant response rating (0 to 100), Velvetleaf: 90
[11]; 250 g ai/ha, scale 0 to 100
  Plant response rating, Velvetleaf: 95
[12]; 31 g ai/ha
  Plant response rating (0 to 100), Galium: 0
[12]; 62 g ai/ha
  Plant response rating (0 to 100), Galium: 0
[12]; 125 g ai/ha
  Plant response rating (0 to 100), Galium: 5
[12]; 250 g ai/ha, scale 0 to 100
  Plant response rating, Galium: 5

Source: patent publication US10167262B2, “Herbicidal substituted 3-arylpyrazoles” (FMC CORPORATION, priority 2014, dated 2019)
